US10870647B2, “Imidazopyridine derivative, method for preparing same, and pharmaceutical composition containing same as active ingredient for preventing or treating cancer” (DAEGU-GYEONGBUK MEDICAL INNOVATION FOUNDATION, priority 2016, dated 2020)
Like-named read-outs stand apart in the source and are kept apart here.

Tests used:
Assay in all cases: Kinase selectivity, scanMAX Kinase assay panel (DiscoverX), % control at 1 uM
Assay type in all cases: binding
[1] = target: T1, scanMAX Kinase assay panel (Homo sapiens, UniProt P53779); conditions: JNK3; 1 uM; read-out: Percent Control (%)
T1 construct: purchased DiscoverX
Procedure, shortened: (§1)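 Activity was called for kinases showing % control under 35, calculated from compound signal relative to positive and negative controls. Each compound screened at 1 uM against the DiscoverX scanMAX panel.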

[2] = target: T2, scanMAX Kinase assay panel (Homo sapiens, UniProt P07333); conditions: 1 uM, read-out: Percent Control (%)
T2 construct: purchased DiscoverX
Procedure, shortened: as §1

[3] = target: T3, scanMAX Kinase assay panel (Homo sapiens, UniProt Q9UQM7); conditions: CAMK2A; 1 uM; read-out: Percent Control (%)
T3 construct: purchased DiscoverX
Procedure, shortened: as §1

[4] = target: T4, scanMAX Kinase assay panel (Homo sapiens, UniProt Q99759); conditions: MAP3K3; 1 uM; read-out: Percent Control (%)
T4 construct: purchased DiscoverX
T4 sequence (Q99759 1-626): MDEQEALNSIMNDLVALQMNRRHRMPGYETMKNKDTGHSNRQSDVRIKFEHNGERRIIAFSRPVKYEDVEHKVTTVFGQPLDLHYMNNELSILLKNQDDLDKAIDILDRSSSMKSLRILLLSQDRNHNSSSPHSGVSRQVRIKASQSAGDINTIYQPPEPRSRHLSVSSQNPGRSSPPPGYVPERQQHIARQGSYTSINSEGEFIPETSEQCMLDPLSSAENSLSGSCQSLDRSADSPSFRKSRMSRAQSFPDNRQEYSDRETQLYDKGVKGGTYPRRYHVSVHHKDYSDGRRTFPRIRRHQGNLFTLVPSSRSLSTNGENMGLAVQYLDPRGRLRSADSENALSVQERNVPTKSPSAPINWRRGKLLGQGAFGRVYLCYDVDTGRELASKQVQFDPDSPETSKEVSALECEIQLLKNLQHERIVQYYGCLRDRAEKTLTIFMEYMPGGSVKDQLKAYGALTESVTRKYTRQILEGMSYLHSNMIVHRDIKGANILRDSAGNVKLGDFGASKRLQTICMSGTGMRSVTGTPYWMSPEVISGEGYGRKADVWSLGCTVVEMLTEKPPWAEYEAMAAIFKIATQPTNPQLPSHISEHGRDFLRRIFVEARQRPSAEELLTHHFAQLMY
Procedure, shortened: as §1

[5] = target: T5, scanMAX Kinase assay panel (Homo sapiens, UniProt Q9BYT3); conditions: STK33; 1 uM; read-out: Percent Control (%)
T5 construct: purchased DiscoverX
Procedure, shortened: as §1

[6] = target: T6, scanMAX Kinase assay panel (Homo sapiens, UniProt P00519, E255K); conditions: ABL1 (E255K)-phosphorylated; 1 uM; read-out: Percent Control (%)
T6 construct: purchased DiscoverX
Procedure, shortened: as §1

[7] = target: T7, scanMAX Kinase assay panel (Homo sapiens, UniProt Q9NRP7); conditions: STK36; 1 uM; read-out: Percent Control (%)
T7 construct: purchased DiscoverX
T7 sequence (Q9NRP7 1-1315): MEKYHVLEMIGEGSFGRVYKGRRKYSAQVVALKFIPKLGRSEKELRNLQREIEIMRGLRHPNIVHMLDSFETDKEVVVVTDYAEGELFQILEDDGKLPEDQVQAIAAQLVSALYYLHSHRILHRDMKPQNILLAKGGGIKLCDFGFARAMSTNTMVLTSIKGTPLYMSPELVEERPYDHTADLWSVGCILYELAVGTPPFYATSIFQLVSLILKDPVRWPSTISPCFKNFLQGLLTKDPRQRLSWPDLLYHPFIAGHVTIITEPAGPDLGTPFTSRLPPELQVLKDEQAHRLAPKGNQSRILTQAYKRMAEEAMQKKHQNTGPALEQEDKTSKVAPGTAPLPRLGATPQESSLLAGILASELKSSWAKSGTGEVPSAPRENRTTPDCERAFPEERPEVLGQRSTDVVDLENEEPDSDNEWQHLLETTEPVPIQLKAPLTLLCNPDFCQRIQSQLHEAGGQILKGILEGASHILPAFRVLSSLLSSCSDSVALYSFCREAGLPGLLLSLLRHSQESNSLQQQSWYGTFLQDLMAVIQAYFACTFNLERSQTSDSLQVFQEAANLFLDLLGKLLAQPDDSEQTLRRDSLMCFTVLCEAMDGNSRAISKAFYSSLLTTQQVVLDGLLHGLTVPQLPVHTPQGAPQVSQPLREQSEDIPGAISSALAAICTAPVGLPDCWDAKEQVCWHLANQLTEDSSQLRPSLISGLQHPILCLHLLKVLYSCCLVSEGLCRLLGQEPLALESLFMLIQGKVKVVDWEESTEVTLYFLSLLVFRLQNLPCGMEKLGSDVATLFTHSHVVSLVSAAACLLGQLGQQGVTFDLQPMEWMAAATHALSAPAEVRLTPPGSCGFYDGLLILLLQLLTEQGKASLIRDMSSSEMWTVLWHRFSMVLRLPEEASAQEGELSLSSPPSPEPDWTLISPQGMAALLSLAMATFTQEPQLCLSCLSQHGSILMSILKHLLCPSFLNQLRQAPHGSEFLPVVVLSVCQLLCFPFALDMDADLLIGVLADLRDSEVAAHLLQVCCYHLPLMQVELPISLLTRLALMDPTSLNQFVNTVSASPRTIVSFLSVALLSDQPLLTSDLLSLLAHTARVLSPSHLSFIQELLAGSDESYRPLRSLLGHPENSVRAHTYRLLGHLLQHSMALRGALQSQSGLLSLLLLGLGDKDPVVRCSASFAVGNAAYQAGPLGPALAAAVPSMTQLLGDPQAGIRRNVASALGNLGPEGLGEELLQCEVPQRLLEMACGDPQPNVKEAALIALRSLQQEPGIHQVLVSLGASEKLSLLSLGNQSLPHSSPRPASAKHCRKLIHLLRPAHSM
Procedure, shortened: as §1

[8] = target: T8, scanMAX Kinase assay panel (Homo sapiens, UniProt P11362); conditions: FGFR1; 1 uM; read-out: Percent Control (%)
T8 construct: purchased DiscoverX
Procedure, shortened: as §1

T3 sequence (Q9UQM7 whole entry): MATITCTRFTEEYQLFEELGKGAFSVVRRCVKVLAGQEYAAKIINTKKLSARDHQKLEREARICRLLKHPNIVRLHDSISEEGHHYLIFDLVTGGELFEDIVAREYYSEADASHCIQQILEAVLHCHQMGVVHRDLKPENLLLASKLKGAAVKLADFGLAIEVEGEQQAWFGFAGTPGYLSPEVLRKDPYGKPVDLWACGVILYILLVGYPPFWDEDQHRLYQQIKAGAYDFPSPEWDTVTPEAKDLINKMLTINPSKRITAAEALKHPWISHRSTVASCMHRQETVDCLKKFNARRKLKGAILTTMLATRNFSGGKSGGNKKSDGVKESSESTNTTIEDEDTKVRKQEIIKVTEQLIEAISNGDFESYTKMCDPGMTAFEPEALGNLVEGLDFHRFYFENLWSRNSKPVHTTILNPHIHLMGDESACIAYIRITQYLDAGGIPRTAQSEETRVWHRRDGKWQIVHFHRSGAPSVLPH
T6 sequence (P00519 whole entry E255K): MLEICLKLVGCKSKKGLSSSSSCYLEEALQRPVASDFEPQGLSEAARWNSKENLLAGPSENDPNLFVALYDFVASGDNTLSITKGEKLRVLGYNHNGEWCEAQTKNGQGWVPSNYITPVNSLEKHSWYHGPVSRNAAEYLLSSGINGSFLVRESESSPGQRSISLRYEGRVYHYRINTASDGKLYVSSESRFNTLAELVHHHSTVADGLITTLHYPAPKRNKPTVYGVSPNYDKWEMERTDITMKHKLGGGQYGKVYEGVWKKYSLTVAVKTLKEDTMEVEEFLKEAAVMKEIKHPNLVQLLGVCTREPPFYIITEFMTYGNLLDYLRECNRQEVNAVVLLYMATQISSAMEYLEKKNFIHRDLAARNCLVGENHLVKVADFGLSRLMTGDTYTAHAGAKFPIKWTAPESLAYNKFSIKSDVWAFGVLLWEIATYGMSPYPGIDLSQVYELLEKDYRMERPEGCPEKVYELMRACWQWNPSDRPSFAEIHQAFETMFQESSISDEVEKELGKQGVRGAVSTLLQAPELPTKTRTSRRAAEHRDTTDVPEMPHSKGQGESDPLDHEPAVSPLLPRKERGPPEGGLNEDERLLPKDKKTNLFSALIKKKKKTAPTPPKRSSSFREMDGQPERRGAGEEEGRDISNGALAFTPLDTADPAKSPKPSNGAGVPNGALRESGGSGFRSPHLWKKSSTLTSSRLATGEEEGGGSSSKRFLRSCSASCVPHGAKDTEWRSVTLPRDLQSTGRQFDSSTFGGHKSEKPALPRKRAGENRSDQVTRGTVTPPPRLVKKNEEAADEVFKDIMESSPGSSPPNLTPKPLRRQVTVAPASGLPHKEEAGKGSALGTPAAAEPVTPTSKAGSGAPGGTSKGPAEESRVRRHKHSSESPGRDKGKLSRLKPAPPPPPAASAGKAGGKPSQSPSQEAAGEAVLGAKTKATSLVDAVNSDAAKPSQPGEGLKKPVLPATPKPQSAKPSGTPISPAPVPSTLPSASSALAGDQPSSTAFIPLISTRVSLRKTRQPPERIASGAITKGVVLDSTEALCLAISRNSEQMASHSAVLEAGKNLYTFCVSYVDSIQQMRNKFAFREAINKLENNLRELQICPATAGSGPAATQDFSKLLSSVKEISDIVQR
T2 sequence (P07333 20-972): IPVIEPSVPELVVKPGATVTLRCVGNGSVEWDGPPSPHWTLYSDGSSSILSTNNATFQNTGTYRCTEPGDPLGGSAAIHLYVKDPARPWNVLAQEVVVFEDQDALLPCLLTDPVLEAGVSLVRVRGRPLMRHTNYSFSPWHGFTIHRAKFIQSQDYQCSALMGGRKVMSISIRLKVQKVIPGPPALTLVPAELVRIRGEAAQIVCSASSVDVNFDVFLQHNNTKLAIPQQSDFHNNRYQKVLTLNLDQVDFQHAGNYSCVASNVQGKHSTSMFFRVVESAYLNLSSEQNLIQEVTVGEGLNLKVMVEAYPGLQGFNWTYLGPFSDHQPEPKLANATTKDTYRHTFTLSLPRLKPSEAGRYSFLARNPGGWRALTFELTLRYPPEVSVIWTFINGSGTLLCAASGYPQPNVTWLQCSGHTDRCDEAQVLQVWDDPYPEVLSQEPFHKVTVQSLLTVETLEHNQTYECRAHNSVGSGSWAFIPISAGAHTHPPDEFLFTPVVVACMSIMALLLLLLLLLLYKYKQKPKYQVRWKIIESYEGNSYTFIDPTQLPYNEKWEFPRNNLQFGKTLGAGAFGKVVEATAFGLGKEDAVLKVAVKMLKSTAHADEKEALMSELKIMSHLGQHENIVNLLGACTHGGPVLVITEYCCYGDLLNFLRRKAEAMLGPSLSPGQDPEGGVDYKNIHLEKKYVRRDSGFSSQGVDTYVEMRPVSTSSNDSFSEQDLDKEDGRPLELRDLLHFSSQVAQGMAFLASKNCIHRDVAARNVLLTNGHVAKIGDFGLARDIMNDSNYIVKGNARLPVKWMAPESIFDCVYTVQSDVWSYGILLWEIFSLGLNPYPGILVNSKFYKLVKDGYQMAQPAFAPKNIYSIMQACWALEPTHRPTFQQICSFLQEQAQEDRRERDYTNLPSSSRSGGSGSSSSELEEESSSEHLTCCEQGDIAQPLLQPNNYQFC
T1 sequence (P53779 whole entry): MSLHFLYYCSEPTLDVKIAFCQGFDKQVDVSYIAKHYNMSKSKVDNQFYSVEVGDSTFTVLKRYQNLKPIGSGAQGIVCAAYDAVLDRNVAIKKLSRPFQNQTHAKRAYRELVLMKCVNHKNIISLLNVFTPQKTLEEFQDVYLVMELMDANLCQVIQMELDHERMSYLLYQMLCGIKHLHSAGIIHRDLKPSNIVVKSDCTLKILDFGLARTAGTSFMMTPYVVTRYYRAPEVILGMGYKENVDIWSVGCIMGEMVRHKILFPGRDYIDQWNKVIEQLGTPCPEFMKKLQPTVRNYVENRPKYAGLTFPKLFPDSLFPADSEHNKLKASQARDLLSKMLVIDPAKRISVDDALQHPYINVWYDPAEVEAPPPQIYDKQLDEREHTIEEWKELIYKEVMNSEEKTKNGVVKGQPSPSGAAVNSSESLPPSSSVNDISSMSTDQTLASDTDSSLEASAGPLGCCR
T5 sequence (Q9BYT3 whole entry): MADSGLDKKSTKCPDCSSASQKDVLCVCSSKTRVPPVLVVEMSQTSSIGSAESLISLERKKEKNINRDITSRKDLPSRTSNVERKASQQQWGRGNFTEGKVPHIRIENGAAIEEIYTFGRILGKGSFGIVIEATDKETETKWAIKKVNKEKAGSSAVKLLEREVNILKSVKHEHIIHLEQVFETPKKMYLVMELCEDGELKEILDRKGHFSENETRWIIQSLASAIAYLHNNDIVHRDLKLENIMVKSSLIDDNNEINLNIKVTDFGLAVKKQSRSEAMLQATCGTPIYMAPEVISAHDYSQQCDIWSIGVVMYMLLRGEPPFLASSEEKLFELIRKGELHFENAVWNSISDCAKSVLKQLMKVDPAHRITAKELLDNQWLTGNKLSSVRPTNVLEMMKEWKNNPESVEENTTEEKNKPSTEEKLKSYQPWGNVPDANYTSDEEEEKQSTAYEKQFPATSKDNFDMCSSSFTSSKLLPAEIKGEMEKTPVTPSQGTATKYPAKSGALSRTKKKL
T8 sequence (P11362 22-822): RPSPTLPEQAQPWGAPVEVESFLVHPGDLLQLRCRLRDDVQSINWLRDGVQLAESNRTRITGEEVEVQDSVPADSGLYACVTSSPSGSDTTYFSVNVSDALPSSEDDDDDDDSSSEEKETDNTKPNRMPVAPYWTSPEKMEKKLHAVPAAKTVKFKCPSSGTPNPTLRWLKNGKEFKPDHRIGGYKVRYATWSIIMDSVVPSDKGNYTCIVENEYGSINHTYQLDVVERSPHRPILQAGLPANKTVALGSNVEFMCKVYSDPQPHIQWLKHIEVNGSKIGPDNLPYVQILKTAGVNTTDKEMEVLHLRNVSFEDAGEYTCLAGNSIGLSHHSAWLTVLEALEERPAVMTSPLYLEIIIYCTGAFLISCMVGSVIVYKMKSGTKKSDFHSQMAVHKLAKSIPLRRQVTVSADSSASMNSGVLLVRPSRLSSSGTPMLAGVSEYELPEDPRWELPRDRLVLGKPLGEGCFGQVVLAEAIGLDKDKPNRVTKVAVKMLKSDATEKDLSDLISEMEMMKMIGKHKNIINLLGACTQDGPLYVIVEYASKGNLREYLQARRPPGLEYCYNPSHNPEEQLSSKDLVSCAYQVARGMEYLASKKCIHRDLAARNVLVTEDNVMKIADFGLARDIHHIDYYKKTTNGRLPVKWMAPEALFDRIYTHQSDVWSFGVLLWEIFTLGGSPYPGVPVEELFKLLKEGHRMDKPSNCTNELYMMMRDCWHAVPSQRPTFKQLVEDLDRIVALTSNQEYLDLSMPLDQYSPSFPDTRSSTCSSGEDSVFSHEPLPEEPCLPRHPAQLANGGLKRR

Compound | remaining binding at 1 µM [1] | remaining binding at 1 µM ([2]; CSF1R-autoinhibited) | remaining binding at 1 µM ([2]; CSF1R) | remaining binding at 1 µM [3] | remaining binding at 1 µM [4] | remaining binding at 1 µM [5] | remaining binding at 1 µM [6] | remaining binding at 1 µM [7] | remaining binding at 1 µM [8]
Cc1ccc(C(=O)Nc2ccc(CN3CCN(C)CC3)c(C(F)(F)F)c2)cc1C#Cc1cnc2c(Nc3cnn(C)c3)cccn12 [Example 1, 4-methyl-3-((8-((1-methyl-1H-pyrazol-4-yl)amino)imidazo[1,2-a]pyridin-3-yl)ethynyl)-N-(4-((4-methylpiperazin-1-yl)methyl)-3-(trifluoromethyl)phenyl)benzamide] | 19% | 74% | 0% | 82% | 0% | 5% | 0% | 1% | 0%
Cc1cn(-c2cc(NC(=O)c3ccc(C)c(C#Cc4cnc5c(Nc6cnn(C)c6)cccn45)c3)cc(C(F)(F)F)c2)cn1 [Example 12, 4-methyl-N-(3-(4-methyl-1H-imidazol-1-yl)-5-(trifluoromethyl)phenyl)-3-((8-((1-methyl-1H-pyrazol-4-yl)amino)imidazo[1,2-a]pyridin-3-yl)ethynyl)benzamide] | 98% | 100% | 0% | 96% | 33% | 40% | 8% | 89% | 6%
Cc1ccc(NC(=O)C2(C(=O)Nc3ccc(F)cc3)CC2)cc1C#Cc1cnc2c(Nc3cnn(C(C)C)c3)cccn12 [Example 78] | 100% | 91% | 2% | 100% | 77% | 100% | 84% | 100% | 100%
